The text below walks through data of PubChem BioAssay AID806 (SRMLSC, 2007).

The assay has as its system virus-infected cells, CPE inhibition, dose response. As to the kind of experiment: PubChem AID 806. Particulars: for EC90: measured here: EC90 CPE inhibition; for CC50: measured here: cytotoxicity, cell viability IC50.

Calls of active or inactive are those of the source. No rule for the calls is given here.

In the case of `O=C(CCS(=O)(=O)c1cccc2nsnc12)NC1CCCCCC1`, the EC50 is > 60 µM (inactive), the 90% effect concentration (EC90) is over 60 µM and the cytotoxic concentration (CC50) was over 60 µM.
Turning to `O=C(COc1ccccc1)Nc1ccc(-c2nnc(-c3ccco3)o2)cc1`, the EC50 was 52 µM (inactive), the EC90 was over 60 µM and the half-maximal cytotoxic concentration (CC50) was over 60 µM.
Consider `O=C(O)CCc1nnc2n(Cc3ccc(F)cc3)c(=O)c3ccccc3n12`, for which the EC50 is > 60 µM (inactive), the EC90 is over 60 µM and the 50% cytotoxic concentration (CC50) is over 60 µM.
Turning to `COc1ccc(-n2ncc3c(N4CCCc5ccccc54)ncnc32)cc1`, the EC50 was > 60 µM (inactive), the concentration for an effect of 90% (EC90) is over 60 µM and the half-maximal cytotoxic concentration (CC50) was over 60 µM.
Turning to `Cc1ccc(C)c(Cc2c(C)nc3c(C(=O)N4CCOCC4)cnn3c2C)c1`, the EC50 was > 60 µM (inactive), the 90% effect concentration (EC90) was over 60 µM and the 50% cytotoxic concentration (CC50) was over 60 µM.
Turning to `O=C(c1ccco1)N1CCn2c1nc1ccccc12`, the EC50 was > 60 µM (inactive), the 90% effect concentration (EC90) was over 60 µM and the CC50 was over 60 µM.
Take `CC(c1ccco1)N(C(=O)COc1ccccc1[N+](=O)[O-])c1ccccn1` (stereo not drawn): the EC50 was > 60 µM (inactive), the EC90 was over 60 µM and the CC50 is over 60 µM.
With `Cc1ccccc1NC(=O)c1ccc(NC(=O)c2ccco2)cc1`, the EC50 is > 60 µM (inactive), the EC90 was over 60 µM and the CC50 is over 60 µM.
Take `O=C(Nc1ccccc1-c1ccccc1)c1ccc(NC(=O)c2ccco2)cc1`: the EC50 was > 60 µM (inactive), the concentration for an effect of 90% (EC90) was over 60 µM and the CC50 is over 60 µM.
In the case of `CC(=O)Nc1cccc(NC(=O)c2cc3ccccc3o2)c1`, the EC50 is > 60 µM (inactive), the 90% effect concentration (EC90) is over 60 µM and the CC50 was over 60 µM.
As for `CCOc1ccccc1NC(=O)c1ccc(NC(=O)c2ccco2)cc1`, the EC50 is > 60 µM (inactive), the concentration for an effect of 90% (EC90) is over 60 µM and the CC50 is over 60 µM.
On to `N#CCCN1CCn2c1nc1ccccc12`, for which the EC50 was > 60 µM (inactive), the EC90 is over 60 µM and the half-maximal cytotoxic concentration (CC50) was over 60 µM.
Take `O=C(c1cnn2c(C(F)F)cc(C3CC3)nc12)N1CCOCC1`: the EC50 is > 60 µM (inactive), the EC90 was over 60 µM and the CC50 was over 60 µM.
For `CCCNC(=O)c1noc2c1CCc1ccccc1-2`, the EC50 was > 60 µM (inactive), the 90% effect concentration (EC90) is over 60 µM and the CC50 is over 60 µM.
`Cc1cccc(-n2ncc3c(N4CCCc5ccccc54)ncnc32)c1`: the EC50 was > 60 µM (inactive), the 90% effect concentration (EC90) is over 60 µM and the CC50 was over 60 µM.
Take `O=C(CSc1ccc2nnc(-c3cccc(F)c3)n2n1)NCc1ccco1`: the EC50 was > 60 µM (inactive), the 90% effect concentration (EC90) was over 60 µM and the CC50 was over 60 µM.
With `COc1ccc(OC)c(-n2c(SC)nnc2-c2c[nH]c3ccccc23)c1`, the EC50 was > 60 µM (inactive), the 90% effect concentration (EC90) is over 60 µM and the 50% cytotoxic concentration (CC50) is over 60 µM.
As to `O=C(c1cc(-c2ccc(Cl)cc2)n(-c2cc(Cl)ccc2Cl)n1)N1CCOCC1`, the EC50 is > 60 µM (inactive), the 90% effect concentration (EC90) was over 60 µM and the CC50 was over 60 µM.
On to `COC(=O)CSc1nnc(-c2cccnc2)o1`, for which the EC50 was > 60 µM (inactive), the concentration for an effect of 90% (EC90) is over 60 µM and the CC50 was over 60 µM.
For the compound `CCOc1ccc(NC(=O)CCS(=O)(=O)c2cccc3nsnc23)cc1`, the EC50 is > 60 µM (inactive), the EC90 was over 60 µM and the cytotoxic concentration (CC50) was over 60 µM.
With `CCN(CC)C(=O)CSc1nnc2sc3ccccc3n12`, the EC50 was > 60 µM (inactive), the EC90 was over 60 µM and the half-maximal cytotoxic concentration (CC50) is over 60 µM.
For the compound `COC(=O)c1ccc(CSc2nnc3n(Cc4ccccc4OC)c(=O)c4ccccc4n23)o1`, the EC50 was > 60 µM (inactive), the 90% effect concentration (EC90) was over 60 µM and the half-maximal cytotoxic concentration (CC50) is over 60 µM.
With `O=C1CC(C(=O)Nc2ccc(C(=O)N3CCOCC3)cc2)C2(CCCCC2)O1` (stereo not drawn), the EC50 was > 60 µM (inactive), the EC90 is over 60 µM and the CC50 was over 60 µM.
Turning to `O=C1CC(C(=O)Nc2ccccc2)C2(CCCCC2)O1` (stereo not drawn), the EC50 is > 60 µM (inactive), the EC90 was over 60 µM and the 50% cytotoxic concentration (CC50) is over 60 µM.
As to `OCC#CCSc1nnc(-c2ccncc2)o1`, the EC50 is > 60 µM (inactive), the 90% effect concentration (EC90) was over 60 µM and the CC50 is over 60 µM.
For the compound `CC(C)CCNC(=O)C1CCCCN1S(=O)(=O)c1ccc(F)cc1` (stereo not drawn), the EC50 is > 60 µM (inactive), the EC90 is over 60 µM and the CC50 was over 60 µM.
`COc1ccc(NS(=O)(=O)c2ccc(OC)c(N(C)S(=O)(=O)c3ccc(Cl)cc3)c2)cc1`: the EC90 was over 60 µM and the CC50 turned out to be 22.9 µM.
In the case of `NC1C2CN(c3nc4c(cc3F)c(=O)c(C(=O)O)cn4-c3ccc(F)cc3F)CC12` (stereo not drawn), the 90% effect concentration (EC90) was over 60 µM and the CC50 stood at 45.1 µM.
With `O=C(O)CCS(=O)(=O)c1nc(-c2cccs2)cc(C(F)(F)F)n1`, the EC50 is > 60 µM (inactive), the EC90 is over 60 µM and the cytotoxic concentration (CC50) is over 60 µM.
On to `Cc1cccc(NC(=O)C2CC(=O)OC23CCCC3)c1` (stereo not drawn), for which the EC50 is > 60 µM (inactive), the 90% effect concentration (EC90) was over 60 µM and the CC50 was over 60 µM.
As to `Cn1c2ccccc2c(=O)c2c(=O)n(C3CCCCC3)c(-c3cccs3)nc21`, the EC50 is 59.3 µM (inactive), the EC90 was over 60 µM and the CC50 was 6.45 µM.
Taken in the same sequence, the figures for `CCOC(=O)/C=C1\SCC(=O)N1CC(=O)Nc1ccc(C(C)C)cc1` were > 60 µM (inactive), over 60 µM and over 60 µM.
On to `COc1ccccc1Cn1c(=O)c2ccccc2n2c(SCc3csc(C)n3)nnc12`, for which the EC50 was > 60 µM (inactive), the 90% effect concentration (EC90) was over 60 µM and the CC50 was over 60 µM.
Turning to `CC(C)NC(=O)CN1CCN(c2ncccn2)CC1`, the EC50 is > 60 µM (inactive), the 90% effect concentration (EC90) was over 60 µM and the CC50 was over 60 µM.
For the compound `CCOCCCNC(=O)C1CCCCN1S(=O)(=O)c1ccc(F)cc1` (stereo not drawn), the EC50 was > 60 µM (inactive), the EC90 is over 60 µM and the CC50 is over 60 µM.
Turning to `CC(=O)c1cccc(NC(=O)CCS(=O)(=O)c2cccc3nsnc23)c1`, the EC50 was > 60 µM (inactive), the concentration for an effect of 90% (EC90) was over 60 µM and the CC50 was over 60 µM.
Regarding `COc1ccc(OC)c(NC(=O)c2cc3ccccc3o2)c1`, the EC50 is > 60 µM (inactive), the EC90 is over 60 µM and the CC50 is over 60 µM.
Regarding `O=C1NC2=C(CCc3ccccc32)C(c2ccc(Br)cc2)N1` (stereo not drawn), the EC50 was 4.34 µM, the EC90 is 27.2 µM and the cytotoxic concentration (CC50) is over 60 µM.
Taken in the same sequence, the figures for `O=C1CSC(=S)N1Cc1cccnc1` were > 60 µM (inactive), over 60 µM and 50.8 µM.
On to `CCCCOc1ccc(C(=O)C(CN2CCOCC2)c2ccccc2)cc1` (stereo not drawn), for which the EC50 is > 60 µM (inactive), the EC90 is over 60 µM and the CC50 was over 60 µM.
On to `Cc1ccc2c(C)c(C(=O)Nc3cccnc3)oc2c1`, for which the EC50 was > 60 µM (inactive), the EC90 is over 60 µM and the CC50 is over 60 µM.
As to `CC1CC(=O)C2=C(C1)Nc1ccccc1N(C(=O)COc1ccccc1)C2c1ccco1` (stereo not drawn), the EC50 was > 60 µM (inactive), the 90% effect concentration (EC90) is over 60 µM and the CC50 is over 60 µM.
With `O=c1[nH]c2ccccc2n1Cc1ccccc1`, the EC50 was > 60 µM (inactive), the EC90 was over 60 µM and the CC50 is over 60 µM.
Consider `O=C(Nc1ccc2c(c1)CCC2)c1cc2ccccc2o1`, for which the EC50 was > 60 µM (inactive), the EC90 is over 60 µM and the 50% cytotoxic concentration (CC50) was over 60 µM.
On to `Cc1ccc(SCC(=O)Nc2ccc(-c3nnc(-c4ccco4)o3)cc2)cc1`, for which the EC50 is > 60 µM (inactive), the EC90 was over 60 µM and the CC50 is over 60 µM.
Consider `Cc1noc(C)c1CSc1nc2sc(C)c(C)c2c(=O)n1C1CCCC1`, for which the EC50 was > 60 µM (inactive), the EC90 was over 60 µM and the half-maximal cytotoxic concentration (CC50) turned out to be 10 µM.
As to `COc1ccccc1NC(=O)c1oc2ccc(C)cc2c1C`, the EC50 was > 60 µM (inactive), the EC90 was over 60 µM and the half-maximal cytotoxic concentration (CC50) was over 60 µM.
For the compound `O=C(c1cc2ccccc2o1)n1nnc2ccccc21`, the EC50 is > 60 µM (inactive), the concentration for an effect of 90% (EC90) is over 60 µM and the CC50 is over 60 µM.
In the case of `COc1ccc(C)cc1NC(=O)c1cc2ccccc2o1`, the EC50 is > 60 µM (inactive), the EC90 is over 60 µM and the cytotoxic concentration (CC50) is over 60 µM.
For the compound `Cc1cc(NC(=O)c2noc3c2CCc2ccccc2-3)no1`, the EC50 was > 60 µM (inactive), the 90% effect concentration (EC90) is over 60 µM and the cytotoxic concentration (CC50) was over 60 µM.
In the case of `COC(=O)Cc1c(C)nc2nc(-c3ccccc3)[nH]n2c1=O`, the EC50 is > 60 µM (inactive), the EC90 is over 60 µM and the half-maximal cytotoxic concentration (CC50) is over 60 µM.
Turning to `COc1cccc(CNC(=O)CCS(=O)(=O)c2cccc3nsnc23)c1`, the EC50 was > 60 µM (inactive), the 90% effect concentration (EC90) was over 60 µM and the CC50 was over 60 µM.
In the case of `COC(=O)CSc1nnc(-c2ccncc2)o1`, the EC50 is > 60 µM (inactive), the EC90 was over 60 µM and the cytotoxic concentration (CC50) is over 60 µM.
As for `Cc1cccc(NC(=O)c2cc3ccccc3o2)c1`, the EC50 was > 60 µM (inactive), the EC90 is over 60 µM and the cytotoxic concentration (CC50) is over 60 µM.
For the compound `COc1cc(OC)c(C2=NOC(C(=O)Nc3cc(C)nn3-c3ccccc3)C2)cc1Cl` (stereo not drawn), the EC50 was > 60 µM (inactive), the 90% effect concentration (EC90) is over 60 µM and the 50% cytotoxic concentration (CC50) was over 60 µM.

The EC50 is the concentration at which the effect is half-maximal. Broadly, the EC90 is the concentration at which the effect reaches the 90% level. The term CC50 denotes the concentration at which the toxic effect on the cells reaches its halfway point. Low values mean harm at low concentration, high ones better tolerance by the cells.
